Test results taken from ChEMBL document CHEMBL1201862, “PubChem BioAssay data set” (2004).
Active and inactive are the calls of the source.

Experiments:
[1] = HEK293 cell cytotoxicity, dose response, cytotoxicity control, plate reader, cherry-picked samples (AID 743446); format: functional, cell-based
[2] = inhibitors of SNCA 5'UTR-driven reporter translation, confirmation, H4 neuroglioma cells, luminescence (AID 1988); format: functional, cell-based
[3] = A549 cell cytotoxicity, dose response, cytotoxicity control, plate reader, cherry-pick, antagonist series (AID 743412); format: functional, cell-based
[4] = MC4R antagonists, dose response, counter-screen for LGR2 antagonist project, cell-based, plate reader, cherry pick (AID 743444); format: functional;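 further: transfected HEK 293 cells stimulated with alpha-MSH peptide; potency of inhibitors of the alpha-MSH evoked signal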
[5] = HepG2 cell cytotoxicity, dose response, cytotoxicity control, plate reader, cherry-pick, antagonist series (AID 743416); format: functional, cell-based
[6] = molecular target: Lysosomal acid glucosylceramidase (Homo sapiens, UniProt P04062); test: Dose response cell-based high throughput screening assay to identify enhancers of beta-glucosidase activity. [Related pubchem assays: 784 ]; format: functional
Sequence of Lysosomal acid glucosylceramidase (P04062 whole entry): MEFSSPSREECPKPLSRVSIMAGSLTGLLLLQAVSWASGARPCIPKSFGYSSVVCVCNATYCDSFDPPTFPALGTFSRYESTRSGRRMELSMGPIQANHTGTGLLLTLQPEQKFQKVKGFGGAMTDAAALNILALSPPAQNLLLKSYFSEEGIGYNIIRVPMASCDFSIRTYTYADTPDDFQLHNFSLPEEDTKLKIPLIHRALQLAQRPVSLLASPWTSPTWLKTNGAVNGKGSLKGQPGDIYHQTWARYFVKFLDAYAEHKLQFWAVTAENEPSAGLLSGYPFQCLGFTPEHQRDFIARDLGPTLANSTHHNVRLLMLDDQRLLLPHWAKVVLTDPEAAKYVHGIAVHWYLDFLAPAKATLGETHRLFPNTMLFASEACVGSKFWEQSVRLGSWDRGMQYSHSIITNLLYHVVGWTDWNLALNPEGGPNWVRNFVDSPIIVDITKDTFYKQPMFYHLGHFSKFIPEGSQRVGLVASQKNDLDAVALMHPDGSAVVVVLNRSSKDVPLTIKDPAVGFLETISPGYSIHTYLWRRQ

[7] = Luminescence Cell-Based Dose Response HTS to Identify Inhibitors of 5'UTR Stem-Loop Driven Prion Protein mRNA Translation in H4 Neuroglioblastoma Cells. [Related pubchem assays: 1827 (Project Summary), 1813 (Primary HTS)]; format: functional
[8] = molecular target: FAD-linked sulfhydryl oxidase ALR (Homo sapiens, UniProt P55789); test: inhibitors of human ALR sulfhydryl oxidase, dose response, biochemical, H2O2 detection, luminescence, cherry-pick (AID 493248)
Sequence of FAD-linked sulfhydryl oxidase ALR (P55789 whole entry): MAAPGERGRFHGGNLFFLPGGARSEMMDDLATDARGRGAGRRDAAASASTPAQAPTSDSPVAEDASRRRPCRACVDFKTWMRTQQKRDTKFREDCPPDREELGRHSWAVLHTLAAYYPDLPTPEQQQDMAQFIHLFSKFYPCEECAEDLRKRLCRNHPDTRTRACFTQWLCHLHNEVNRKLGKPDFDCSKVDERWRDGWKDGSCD

[9] = test system: HEK293; test: inhibitors of LMP1-driven NF-kB reporter, dose response, cell-based, HEK293, luciferase, cherry-pick (AID 588343); format: functional; settings: Homo sapiens
[10] = LGR2 antagonists, dose response, cell-based, HEK293, CRE-luciferase reporter, cherry pick, set 2 (AID 743343); format: functional;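 further: transfected cells were stimulated with diluted bursicon conditioned medium after compound addition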
[11] = molecular target: Genome polyprotein (Hepatitis C virus, UniProt Q2Q167); test: HCV core protein dimerization inhibitors, dose response, biochemical, TR-FRET (AID 2159); design: species or system Hepacivirus hominis;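 further: blocks dimerization of HCV core protein measured by TR-FRET between tagged core106 pairs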
Sequence of Genome polyprotein (Q2Q167 whole entry): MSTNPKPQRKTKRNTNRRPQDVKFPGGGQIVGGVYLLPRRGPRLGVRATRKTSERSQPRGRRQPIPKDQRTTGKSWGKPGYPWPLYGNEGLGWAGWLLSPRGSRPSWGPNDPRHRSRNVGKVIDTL

[12] = molecular target: T1, Tyrosine-protein phosphatase non-receptor type 7 (Homo sapiens, UniProt P35236); test: SAR analysis of chemical inhibitors of HePTP using a Fluorescent assay - Set 2. [Related pubchem assays (depositor defined):AID1059, AID1077, AID1661, AID2085, AID521]; format: functional
T1 sequence (P35236 whole entry): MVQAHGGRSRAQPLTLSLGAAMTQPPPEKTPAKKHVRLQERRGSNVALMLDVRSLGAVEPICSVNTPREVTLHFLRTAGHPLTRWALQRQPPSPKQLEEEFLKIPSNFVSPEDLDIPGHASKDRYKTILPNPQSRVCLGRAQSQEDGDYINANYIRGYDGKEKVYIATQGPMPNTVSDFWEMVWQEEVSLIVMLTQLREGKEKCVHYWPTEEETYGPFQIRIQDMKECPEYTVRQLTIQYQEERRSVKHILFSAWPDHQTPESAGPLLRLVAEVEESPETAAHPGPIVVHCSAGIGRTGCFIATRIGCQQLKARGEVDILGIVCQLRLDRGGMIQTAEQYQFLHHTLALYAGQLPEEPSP

[13] = molecular target: Dual specificity protein phosphatase 3 (Homo sapiens, UniProt P51452); test: SAR VHR1 Fluorescent Assay for In Vitro dose response studies Set 2. [Related pubchem assays (depositor defined):AID1654, AID1661, AID1878]; format: functional
Sequence of Dual specificity protein phosphatase 3 (P51452 whole entry): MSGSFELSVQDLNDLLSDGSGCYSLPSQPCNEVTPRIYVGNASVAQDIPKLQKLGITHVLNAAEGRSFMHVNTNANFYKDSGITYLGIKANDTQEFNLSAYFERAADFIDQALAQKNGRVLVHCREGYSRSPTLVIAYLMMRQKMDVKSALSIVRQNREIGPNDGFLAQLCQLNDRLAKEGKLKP

[14] = molecular target: Acyl-homoserine lactone acylase PvdQ (Pseudomonas aeruginosa (strain LESB58), UniProt Q9I194); test: P. aeruginosa PvdQ acylase inhibitors, dose response, biochemical, fluorescence, plate reader and imaging, cherry-picks (AID 493231)
Sequence of Acyl-homoserine lactone acylase PvdQ (Q9I194 24-193 limits assumed): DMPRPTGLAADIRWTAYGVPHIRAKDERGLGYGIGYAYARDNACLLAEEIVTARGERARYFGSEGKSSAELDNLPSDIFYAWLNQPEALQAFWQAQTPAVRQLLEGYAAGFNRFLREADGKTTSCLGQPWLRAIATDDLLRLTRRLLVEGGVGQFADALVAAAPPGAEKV
Sequence of Acyl-homoserine lactone acylase PvdQ (Q9I194 217-762 limits assumed): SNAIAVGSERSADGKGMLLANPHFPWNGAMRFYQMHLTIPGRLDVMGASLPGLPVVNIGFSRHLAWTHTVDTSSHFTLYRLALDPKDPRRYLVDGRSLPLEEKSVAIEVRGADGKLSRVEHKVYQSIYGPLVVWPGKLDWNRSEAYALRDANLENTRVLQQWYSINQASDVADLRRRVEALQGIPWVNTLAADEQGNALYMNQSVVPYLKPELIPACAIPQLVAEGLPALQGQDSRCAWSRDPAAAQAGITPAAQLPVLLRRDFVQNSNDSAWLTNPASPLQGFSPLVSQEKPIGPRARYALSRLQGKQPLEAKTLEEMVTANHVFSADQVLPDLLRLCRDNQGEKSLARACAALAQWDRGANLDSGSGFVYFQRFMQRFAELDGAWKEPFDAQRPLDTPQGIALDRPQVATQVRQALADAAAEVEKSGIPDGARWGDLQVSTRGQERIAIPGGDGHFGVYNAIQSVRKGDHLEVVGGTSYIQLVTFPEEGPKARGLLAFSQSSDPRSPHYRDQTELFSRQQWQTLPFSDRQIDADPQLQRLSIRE

[15] = P. falciparum Dd2 growth inhibitors, dose response, SYBR Green, cherry-picked samples (AID 1159567); format: functional, cell-based
[16] = IGROV1 ovarian cancer cell cytotoxicity, dose response, PAX8 inhibitor project, plate reader, dry powder samples (AID 743043); format: functional, cell-based; settings: IGROV-1
[17] = P. falciparum 3D7-ScDHODH growth inhibitors, dose response, SYBR Green, dry powder samples (AID 1159570); format: functional, cell-based;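 further: parasite growth measured after 72 hours of compound exposure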
[18] = P. falciparum Dd2 growth inhibitors, dose response, SYBR Green, dry powder samples (AID 1159566); format: functional, cell-based;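 further: potency for growth inhibition with lower SYBR green DNA signal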
[19] = P. falciparum ATP4 D1247Y mutant growth inhibitors, dose response, NITD609-resistant line, SYBR Green, dry powder (AID 1159571); format: functional, cell-based;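 further: parasites synchronized at ring stage by sorbitol before testing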
[20] = HepG2 cell cytotoxicity, dose response, cytotoxicity control, plate reader, dry powder samples (AID 1159569); format: functional, cell-based;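 further: inhibitor potency with signal falling toward the positive control level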
[21] = molecular target: Paired box protein Pax-8 (Homo sapiens, UniProt Q06710); test: inhibitors of PAX8-driven TPO luciferase reporter, dose response, RMG-I cells, cherry-pick (AID 687027); format: functional, cell-based;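 further: luciferase reporter driven by Pax8 target thyroperoxidase promoter measured by SteadyGlo luminescence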
Sequence of Paired box protein Pax-8 (Q06710 whole entry): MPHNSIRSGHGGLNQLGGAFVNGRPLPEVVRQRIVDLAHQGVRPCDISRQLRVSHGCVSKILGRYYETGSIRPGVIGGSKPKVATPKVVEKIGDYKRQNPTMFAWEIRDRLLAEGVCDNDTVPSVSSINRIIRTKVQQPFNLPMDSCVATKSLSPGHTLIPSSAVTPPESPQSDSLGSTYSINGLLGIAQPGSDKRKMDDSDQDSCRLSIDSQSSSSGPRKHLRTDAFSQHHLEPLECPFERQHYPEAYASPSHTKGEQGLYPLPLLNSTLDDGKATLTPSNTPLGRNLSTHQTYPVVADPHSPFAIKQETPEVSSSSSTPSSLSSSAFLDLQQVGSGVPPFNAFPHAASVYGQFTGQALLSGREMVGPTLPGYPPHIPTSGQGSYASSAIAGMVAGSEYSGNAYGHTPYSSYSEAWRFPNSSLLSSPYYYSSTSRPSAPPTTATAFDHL

[22] = HepG2 cell cytotoxicity, dose response, cytotoxicity control, cherry-picked samples (AID 1159577); format: functional, cell-based
[23] = HeLa 2N DNA content increase, dose response, cell-based, IC50 (AID 1117349); format: functional
[24] = HeLa 4N DNA content increase, dose response, cell-based, IC50 (AID 1117351); format: functional
[25] = M. tuberculosis H37Rv growth inhibitors, H37Rv strain (AID 1626); format: functional
[26] = molecular target: RNA-editing ligase 1, mitochondrial (Trypanosoma brucei brucei, UniProt P86926); test: TbREL1 ligase inhibitors, dose response, biochemical, fluorescence, Trypanosoma brucei (AID 1117295); format: functional
Sequence of RNA-editing ligase 1, mitochondrial (P86926 whole entry): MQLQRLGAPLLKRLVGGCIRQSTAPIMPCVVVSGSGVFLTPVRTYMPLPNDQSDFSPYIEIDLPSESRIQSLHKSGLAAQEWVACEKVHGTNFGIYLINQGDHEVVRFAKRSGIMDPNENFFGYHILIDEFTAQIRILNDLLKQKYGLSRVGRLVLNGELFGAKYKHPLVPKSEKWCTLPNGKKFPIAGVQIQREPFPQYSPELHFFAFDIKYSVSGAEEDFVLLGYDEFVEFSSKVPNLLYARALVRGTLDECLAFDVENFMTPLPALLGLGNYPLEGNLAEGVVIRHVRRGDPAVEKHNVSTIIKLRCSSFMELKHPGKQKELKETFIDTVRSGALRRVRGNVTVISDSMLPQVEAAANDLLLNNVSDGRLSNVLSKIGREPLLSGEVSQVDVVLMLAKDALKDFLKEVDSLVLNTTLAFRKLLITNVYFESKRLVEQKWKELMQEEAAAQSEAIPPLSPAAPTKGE

[27] = molecular target: Cytochrome P450 2D6 (Homo sapiens, UniProt P10635);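 further: CYP2D6 member of a cytochrome P450 panel assay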
Sequence of Cytochrome P450 2D6 (P10635 whole entry): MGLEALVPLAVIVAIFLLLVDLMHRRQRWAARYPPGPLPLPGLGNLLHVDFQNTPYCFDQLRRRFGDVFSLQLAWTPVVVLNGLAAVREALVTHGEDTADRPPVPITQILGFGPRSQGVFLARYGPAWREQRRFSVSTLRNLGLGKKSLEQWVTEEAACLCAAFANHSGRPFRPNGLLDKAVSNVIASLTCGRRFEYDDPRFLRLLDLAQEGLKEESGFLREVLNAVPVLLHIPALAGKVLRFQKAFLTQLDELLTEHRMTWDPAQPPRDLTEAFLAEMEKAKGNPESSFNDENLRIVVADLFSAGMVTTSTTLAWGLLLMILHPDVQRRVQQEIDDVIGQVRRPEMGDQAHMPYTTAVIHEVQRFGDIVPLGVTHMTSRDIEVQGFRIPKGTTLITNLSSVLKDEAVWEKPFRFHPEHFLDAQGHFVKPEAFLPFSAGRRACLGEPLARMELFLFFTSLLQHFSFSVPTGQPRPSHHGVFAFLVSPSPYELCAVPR

CN(C)c1ccc(-c2nc3ccccc3n2C)cc1
AC50 [1]: 32.2 µM (active) | EC50 [2]: 7.88 µM (active) | AC50 [3]: 38.2 µM (active) | AC50 [4]: 4.64 µM (active) | AC50 [5]: > 52 µM (inactive) | EC50 [6]: > 50 µM (not active) | EC50 [7]: 12.7 µM (active) | AC50 [8]: 6.13 µM (active) | AC50 [9]: 2.11 µM (active) | AC50 [10]: 4.7 µM (active)

Sc1nncn2c1cc1oc3ccccc3c12
IC50 [11]: > 49.8 µM (not active)

O=C1CC(=O)N(c2ccc3c(c2)OCO3)C(=O)N1
EC50 [6]: > 50 µM (not active)

COc1ccc(OC)c(C(=S)NCc2ccc(F)c(C(F)(F)F)c2)c1
IC50 [12]: 15.5 µM (active) | IC50 [13]: 60.8 µM (active)

N#CCN(N=Nc1ccccc1)c1ccccc1
AC50 [14]: 9.41 µM (active)

C[C@@H]1CN([C@@H](C)CO)C(=O)c2c(c3ccccc3n2C)-c2ccccc2CO[C@@H]1CN(C)S(=O)(=O)c1ccc(C(F)(F)F)cc1
AC50 [15]: 2.57 µM (active) | AC50 [1]: 34.5 µM (active) | AC50 [16]: 58.4 µM (active) | AC50 [3]: 22.3 µM (active) | AC50 [4]: 54.3 µM (active) | AC50 [5]: 21.9 µM (active) | AC50 [17]: 2.24 µM (active) | AC50 [18]: 1.63 µM (active) | AC50 [19]: 2.21 µM (active) | AC50 [20]: 20.9 µM (active) | AC50 [21]: 6.8 µM (active) | AC50 [22]: > 39 µM (inactive) | AC50 [10]: 51.6 µM (active)

COC(=O)c1nc(Cl)c(Cl)nc1N
IC50 [23]: 0.334 µM (active) | IC50 [24]: 0.511 µM (active)

COc1ccc(/N=C/C2=C(O)OCC2)cc1
IC50 [25]: > 100 µM (active)

COc1cccc(CN(C)C(=O)[C@H]2O[C@@H](n3cnc4c(=O)[nH]c(N)nc43)[C@H](O)[C@@H]2O)c1
IC50 [26]: > 96.6 µM (inactive)

CCCCc1ccc2[nH]c(NC(=O)OC)nc2c1 [PARBENDAZOLE]
IC50 [23]: 0.0104 µM (active) | IC50 [24]: 0.0106 µM (active) | AC50 [27]: 1.58 µM (inconclusive)
